Results published in patent US20250213646A1, “BIOACTIVE WALNUT PEPTIDES AND COMPOSITIONS FOR TREATING SKIN” (L'OREAL, priority 2024, published 2025).

Experiments:
Assay type in all cases: cell-based
[1] = tested on: transglutaminase 1 (TGM1); assay: Barrier renewal, microneedle ex vivo skin model: TGM1 immunohistochemistry; conditions: 500 μM of each peptide in media; 7-day culture; microneedled human skin explants
Description: (§1) Fresh post-abdominoplasty normal human skin samples were acquired from BioIVT Inc. (Westbury, NY). Tissue was defatted and cleaned of blood residue. Tissue was then subjected to treatment using a microneedling pen (36-pin needles, Dr. Pen A6 Cartridges Tips, Dr. Pen Inc., San Jose, CA, USA) with a needle length of 1.5 mm. Tissue was subjected to 5 passes of the microneedle. Following treatment, 1.2 cm diameter skin biopsies were created and cultured at the air-liquid interface. Skin explants not subjected to microneedling served as the untreated control group. Control and microneedle control samples were cultured in Dulbecco's Modified Eagle's Medium (650 μL per well, DMEM with 10% fetal bovine serum and 1% penicillin-streptomycin) at 37° C. and 5% CO2. Treated microneedle samples with the peptides were cultured in DMEM with 10% fetal bovine serum, 1% penicillin-streptomycin. 500 uM of each peptide was dissolved into the media. Treatment medium was changed every other day with the exception of weekends. Following a 7-day culture period, all biopsies were processed for histological and immunohistochemical analysis. Skin explants were processed for hematoxylin and eosin (H&E) staining and immunohistochemical staining against filaggrin (FLG) and transglutaminase 1 (TGM1) according to standard protocol (HistoWiz, Brooklyn, NY).

[2] = tested on: Adult Normal Human Epidermal Keratinocytes; assay: Differential gene expression (RNA sequencing) in keratinocytes treated with walnut peptides; conditions: 100 uM or 500 uM peptide in culture media
Experimental: Peptide I, II, and III were investigated for their ability to influence gene expression at concentration at 100 μM abd 500 μM for cells and 250 μM for reconstructed human epidermis (RHE).
Adult Normal Human Epidermal Keratinocytes (Lot 80819221, Passage 3, ATCC) were expanded and seeded into a 6-well plate at a density of 300,000 cells/well. Cells were grown in Dermal Cell Basal Medium (ATCC PCS-200-030) supplemented with one Keratinocyte Growth Kit (ATCC PCS-200-040). Cells attached overnight and then culture media was aspirated and replaced with media containing either 100 uM or 500 uM of Peptide I, Peptide II, or Peptide III. Cells were cultured for […] with treatment with renewal of treatment medium every other day with the exception of weekends. Following the 7-day incubation period, cells were trypsinized and the cell pellet was snap-frozen using liquid nitrogen. Cells then underwent RNA sequencing. The log 2 fold change for each treatment group compared to untreated control samples for differentially expressed genes (DEGs) related to skin barrier were analyzed. Fold change was plotted via heatmap to show upregulation or downregulation of these genes. Microsoft Excel and GraphPad Prism were used for additional analysis and data presentation. The results are shown in the heatmap of FIG. 1.

[3] = tested on: filaggrin (FLG); assay: Barrier renewal, microneedle ex vivo skin model: filaggrin immunohistochemistry; conditions: 500 μM of each peptide in media; 7-day culture; microneedled human skin explants
Description: as §1

[4] = tested on: normal human skin samples; assay: Ex vivo chronic inflammation model (CSC): H&E histology; conditions: 500 μM of each peptide; cell stimulation cocktail (CSC); 7-day culture; human skin explants
Experimental: Fresh post-abdominoplasty normal human skin samples were acquired from BioIVT Inc. (Westbury, NY). Tissue was defatted and cleaned of blood residue. 1.2 cm diameter skin biopsies were created and cultured at the air-liquid interface. Skin explants not subjected to the inflammatory stimulant served as the untreated control group. Control samples were cultured in Dulbecco's Modified Eagle's Medium (650 μL per well, DMEM with 10% fetal bovine serum and 1% penicillin-streptomycin) at 37° C. and 5% CO2. Treated microneedle samples with the peptides were cultured in DMEM with 10% fetal bovine serum, 1% penicillin-streptomycin with a 2× dilution of cell stimulation cocktail (CSC) 500×. Samples treated with the peptide contained 500 μM of each peptide dissolved into the media. Fresh stimulants were made each time replenishing the treatment medium every other day with the exception of weekends. Following a 7-day culture period, all biopsies were processed for histological and immunohistochemical analysis. Skin explants were processed for hematoxylin and eosin (H&E) staining and immunohistochemical staining against filaggrin (FLG) and transglutaminase 1 (TGM1) according to standard protocol (HistoWiz, Brooklyn, NY).

Lys-Val-Pro-Pro-Leu-Leu-Tyr (KVPPLLY) (printed: Lys-Val-Pro-Pro-Leu-Leu-Tyr) [Peptide III]
expression and localization of TGM1 after microneedling [1]: increase the expression of TGM1 and localization | differentially expressed genes (DEGs) related to skin barrier, log 2 fold change compared to untreated control (FIG. 1) [2]: strong benefits to the skin barrier on a cellular level at both concentrations tested | filaggrin expression after microneedling [3]: increase filaggrin expression | epidermal stress, spongiosis/vacuole formation induced by CSC (H&E histology, FIG. 4) [4]: ameliorated

Thr-Trp-Leu-Pro-Leu-Pro-Arg (TWLPLPR) (printed: Thr-Trp-Leu-Pro-Leu-Pro-Arg) [Peptide I]
expression and localization of TGM1 after microneedling [1]: increase the expression of TGM1 and localization | differentially expressed genes (DEGs) related to skin barrier, log 2 fold change compared to untreated control (FIG. 1) [2]: showed an influence at the higher concentration | filaggrin expression after microneedling [3]: increase filaggrin expression | epidermal stress, spongiosis/vacuole formation induced by CSC (H&E histology, FIG. 4) [4]: ameliorated

Tyr-Val-Leu-Leu-Pro-Ser-Pro-Lys (YVLLPSPK) (printed: Tyr-Val-Leu-Leu-Pro-Ser-Pro-Lys) [Peptide II]
expression and localization of TGM1 after microneedling [1]: increase the expression of TGM1 and localization | differentially expressed genes (DEGs) related to skin barrier, log 2 fold change compared to untreated control (FIG. 1) [2]: strong benefits to the skin barrier on a cellular level at both concentrations tested | filaggrin expression after microneedling [3]: increase filaggrin expression | epidermal stress, spongiosis/vacuole formation induced by CSC (H&E histology, FIG. 4) [4]: ameliorated
